Test system: hVEGF-A-#33 cell line
Assay: Screening for diversification-promoting compounds by FCM (hIgG+_hVEGF-A− population)
Format: cell-based, chicken
Settings: hVEGF-A-#33 cells expressing human IgG, versus negative control CS(−)
Experimental: Frozen stocks of the hVEGF-A #33 cell line and the hVEGF-A #44 cell line (3.0×10^6 cells) were each awaken with a CS(-) medium, using a 25 cm^2 Flask (Corning, 430639), and were then cultured in a CO2 incubator (SANYO CO2 Incubator MCO-20AIC, 39.5° C., 5% CO2). On the following day, the cells were seeded on a 6-well dish (Nunc, 140675) to a cell density of 1.0×10^4 cells/mL (wherein the cell concentration and the survival rate were measured using CASY cell counter (Nepa Gene)). The cells were cultured in a CS(+) medium, in the presence or absence of a PI3Kα inhibitor ([…]: 10 μM, PI3Kα Inhibitor 2: 500 nM). Moreover, after the cells had been cultured for 2 days, individual samples were subcultured under the same conditions to result in a cell density of 1.0×10^4 cells/mL. Further, after completion of the culture for 3 days, individual samples were subcultured under the same conditions to result in a cell density of 6.0×10^4 cells/mL, and the culture was continued. After completion of the culture for 2 days (Day 7 of the culture), individual samples were centrifuged to remove a supernatant, and the residue was then suspended in a CS(+) medium supplemented with 1 μM FK-506 (hereinafter referred to as a “CS/FK medium”). The suspension was centrifuged again to remove a supernatant. This washing step was carried out repeatedly twice, and individual samples were then suspended in a CS/FK medium supplemented with AF647-labeled hVEGF-A (10 nM) and 2,000-fold diluted Goat Anti-Human IgG-PE. The light was shielded, and the obtained suspension was then reacted at 4° C. for 30 min. After completion of the staining, the reaction mixture was washed with a CS/FK medium twice, and each sample was then suspended in the CS/FK medium. Thereafter, using FACS Aria Fusion (BD), FCM and single cell sorting was carried out. Dead cells were removed using FSC-SSC plot. A plot, in which the vertical axis indicated AF647 (AF647-labeled hVEGF-A) and the longitudinal axis indicated PE (Goat Anti-Human IgG-PE), was developed, and the percentage of PE+(hIgG+)/AF647-(hVEGF-A-) cells was then calculated. In order to make a comparison regarding the number of cells with improved antigen-binding ability according to Affinity Maturation under individual conditions, Affinity Maturation Gate was established according to the following criteria. First, the plot was converted to a contour plot in FCM analysis, and a trapezoid gate having an inclination that was in parallel with the contour of a population in which the most cells were gathered (hereinafter referred to as a “main population”) was established. […] At that time, the vertex of the trapezoid gate was set to be overlapped with the mean value MFI of the main population, and then, a cell population having low antigen-binding ability and a cell population having a low expression level of antibody were set not to enter the gate. The percentage of clones with improved antigen-binding ability was calculated by counting the number of cells existing in this Affinity Maturation Gate and then dividing the obtained value by the total number of the analyzed cells. […]

## O=C1NC(=O)/C(=C/c2ccc3nccc(-c4ccncc4)c3c2)S1 [GSK1059615]
  percentage of hIgG+_hVEGF-A− cell population (diversification-promoting effect): increased in comparison to the negative control (CS(−))

## N#Cc1ccc(-c2c(-c3ncn[nH]3)sc(N3CCOCC3)c2C#N)c(F)c1 [PF-4989216]
  percentage of hIgG+_hVEGF-A− cell population (diversification-promoting effect): increased in comparison to the negative control (CS(−))

## Oc1cccc(-c2nc(N3CCOCC3)c3oc4ncccc4c3n2)c1 [PI-103]
  percentage of hIgG+_hVEGF-A− cell population (diversification-promoting effect): increased in comparison to the negative control (CS(−))

## COc1ccc2c(c1OC)N=C(NC(=O)c1cccnc1)N1CCN=C21 [PIK-90]
  percentage of hIgG+_hVEGF-A− cell population (diversification-promoting effect): increased in comparison to the negative control (CS(−))

— patent US11572402B2, “Method for promoting diversification of antibody variable region” (Chiome Bioscience Inc., priority 2017, dated 2023)
